Like-named read-outs stand apart in the source and are kept apart here.

The experiment concerns the target T1, calcium channel (Oryctolagus cuniculus, UniProt P15381).
T1 construct: from tissue; host or cells: rabbit heart membrane preparation
The experiment can be described thus: Assay for Inhibition of Nitrendipine Binding (3H-nitrendipine, heart membranes). Set-up: species or system rabbit. The note with it: 3H-nitrendipine displacement, rabbit heart membranes. The protocol:
Assay for Inhibition of Nitrendipine Binding
Female, New Zealand white rabbits (1-2 kg) are sacrificed by cervical dislocation, and the heart is immediately removed, cleaned and chopped into small pieces. The tissue is homogenized in 5×times volume of 0.05M Hepes buffer, pH 7.4. The homogenate is centrifuged at 4000 g for 10 minutes, and the supernatant is re-centrifuged at 42,000×g for 90 minutes. The resulting membrane pellet is resuspended (0.7 ml/g weight) in 0.05M Hepes, pH 7.4 and stored at […] until used. Each tube of the binding assay contains ^3H-nitrendipine (0.05-0.50 nM), buffer, membranes (0.10 ml), and test compound in a total volume of 1.0 ml. After 90 minutes at 4° C., the bound nitrendipine is separated from the unbound by filtration on Whatman GF/C filters. After rinsing, the filters are dried and counted in a liquid scintillation counter.
Non-specific binding of ^3H-nitrendipine (that amount bound in the presence of excess unlabelled nitrendipine) is subtracted from the total bound to obtain specifically bound radiolabeled nitrendipine. The amount of specifically bound nitrendipine in the presence of a test compound is compared to that amount bound in the absence of a compound. A percent displacement (or inhibition) can then be calculated.

The mark [1] stands for this setting: Table 1, compounds of Formula I, read-out: Nitrendipine Binding Assay IC50.
[2] abbreviates: Table 2, compounds of Formula II, read-out: Nitrendipine Binding IC50.

T1 sequence (P15381 whole entry, other chains not shown): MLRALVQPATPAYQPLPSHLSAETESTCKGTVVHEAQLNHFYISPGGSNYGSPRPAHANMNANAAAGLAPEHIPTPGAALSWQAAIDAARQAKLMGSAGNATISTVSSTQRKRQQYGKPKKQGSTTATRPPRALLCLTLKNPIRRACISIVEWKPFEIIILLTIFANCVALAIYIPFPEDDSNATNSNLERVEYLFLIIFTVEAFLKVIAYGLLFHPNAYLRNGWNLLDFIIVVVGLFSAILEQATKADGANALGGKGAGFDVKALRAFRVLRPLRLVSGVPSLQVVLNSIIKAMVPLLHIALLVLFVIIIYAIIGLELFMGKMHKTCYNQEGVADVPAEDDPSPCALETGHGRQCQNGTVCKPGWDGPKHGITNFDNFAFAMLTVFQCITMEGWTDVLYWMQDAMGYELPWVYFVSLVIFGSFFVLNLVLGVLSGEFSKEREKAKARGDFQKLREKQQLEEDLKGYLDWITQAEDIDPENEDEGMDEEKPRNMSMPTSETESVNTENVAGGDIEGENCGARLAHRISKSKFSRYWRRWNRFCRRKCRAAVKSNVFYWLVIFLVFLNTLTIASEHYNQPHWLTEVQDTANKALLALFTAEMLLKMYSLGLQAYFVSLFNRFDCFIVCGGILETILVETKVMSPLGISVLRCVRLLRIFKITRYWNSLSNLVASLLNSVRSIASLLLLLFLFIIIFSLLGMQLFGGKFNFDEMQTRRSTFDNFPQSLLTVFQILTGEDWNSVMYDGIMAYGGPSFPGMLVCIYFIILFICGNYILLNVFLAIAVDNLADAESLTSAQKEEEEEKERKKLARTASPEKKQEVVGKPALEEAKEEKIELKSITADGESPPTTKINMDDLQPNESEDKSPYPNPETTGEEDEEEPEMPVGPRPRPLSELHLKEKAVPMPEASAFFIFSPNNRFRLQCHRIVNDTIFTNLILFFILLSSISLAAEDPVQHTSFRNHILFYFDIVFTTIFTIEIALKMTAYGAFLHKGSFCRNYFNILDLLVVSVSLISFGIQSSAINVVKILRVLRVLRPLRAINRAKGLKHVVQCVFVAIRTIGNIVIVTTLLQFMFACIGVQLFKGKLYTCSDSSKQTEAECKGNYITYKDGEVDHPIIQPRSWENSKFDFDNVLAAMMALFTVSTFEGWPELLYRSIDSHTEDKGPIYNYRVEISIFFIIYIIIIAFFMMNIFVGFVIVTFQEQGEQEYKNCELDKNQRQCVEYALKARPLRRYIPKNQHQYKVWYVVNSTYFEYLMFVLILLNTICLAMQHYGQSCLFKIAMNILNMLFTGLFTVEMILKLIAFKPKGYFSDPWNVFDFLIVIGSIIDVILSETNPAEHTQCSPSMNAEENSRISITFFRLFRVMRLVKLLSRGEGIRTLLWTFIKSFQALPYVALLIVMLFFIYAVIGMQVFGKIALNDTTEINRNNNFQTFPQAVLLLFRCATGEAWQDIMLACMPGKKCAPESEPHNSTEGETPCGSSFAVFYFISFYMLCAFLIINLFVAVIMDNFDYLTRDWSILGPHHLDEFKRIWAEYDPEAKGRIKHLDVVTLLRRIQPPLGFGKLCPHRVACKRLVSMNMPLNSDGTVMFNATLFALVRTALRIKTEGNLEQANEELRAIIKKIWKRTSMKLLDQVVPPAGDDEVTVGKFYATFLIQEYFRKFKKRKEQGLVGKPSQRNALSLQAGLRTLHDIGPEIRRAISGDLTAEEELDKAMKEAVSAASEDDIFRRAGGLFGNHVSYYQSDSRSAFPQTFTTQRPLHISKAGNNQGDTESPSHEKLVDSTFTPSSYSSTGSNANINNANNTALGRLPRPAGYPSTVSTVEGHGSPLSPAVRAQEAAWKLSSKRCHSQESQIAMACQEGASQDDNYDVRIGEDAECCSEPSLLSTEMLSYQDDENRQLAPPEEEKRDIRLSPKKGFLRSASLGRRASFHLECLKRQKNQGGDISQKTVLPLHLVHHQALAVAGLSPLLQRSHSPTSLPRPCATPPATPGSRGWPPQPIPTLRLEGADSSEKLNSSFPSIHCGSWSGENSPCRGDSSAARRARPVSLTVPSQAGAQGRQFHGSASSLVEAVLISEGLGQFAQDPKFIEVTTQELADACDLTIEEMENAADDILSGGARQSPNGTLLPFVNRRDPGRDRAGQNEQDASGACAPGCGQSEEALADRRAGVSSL
T1 sequence (P13806 27-960 partner limits assumed, other chains not shown): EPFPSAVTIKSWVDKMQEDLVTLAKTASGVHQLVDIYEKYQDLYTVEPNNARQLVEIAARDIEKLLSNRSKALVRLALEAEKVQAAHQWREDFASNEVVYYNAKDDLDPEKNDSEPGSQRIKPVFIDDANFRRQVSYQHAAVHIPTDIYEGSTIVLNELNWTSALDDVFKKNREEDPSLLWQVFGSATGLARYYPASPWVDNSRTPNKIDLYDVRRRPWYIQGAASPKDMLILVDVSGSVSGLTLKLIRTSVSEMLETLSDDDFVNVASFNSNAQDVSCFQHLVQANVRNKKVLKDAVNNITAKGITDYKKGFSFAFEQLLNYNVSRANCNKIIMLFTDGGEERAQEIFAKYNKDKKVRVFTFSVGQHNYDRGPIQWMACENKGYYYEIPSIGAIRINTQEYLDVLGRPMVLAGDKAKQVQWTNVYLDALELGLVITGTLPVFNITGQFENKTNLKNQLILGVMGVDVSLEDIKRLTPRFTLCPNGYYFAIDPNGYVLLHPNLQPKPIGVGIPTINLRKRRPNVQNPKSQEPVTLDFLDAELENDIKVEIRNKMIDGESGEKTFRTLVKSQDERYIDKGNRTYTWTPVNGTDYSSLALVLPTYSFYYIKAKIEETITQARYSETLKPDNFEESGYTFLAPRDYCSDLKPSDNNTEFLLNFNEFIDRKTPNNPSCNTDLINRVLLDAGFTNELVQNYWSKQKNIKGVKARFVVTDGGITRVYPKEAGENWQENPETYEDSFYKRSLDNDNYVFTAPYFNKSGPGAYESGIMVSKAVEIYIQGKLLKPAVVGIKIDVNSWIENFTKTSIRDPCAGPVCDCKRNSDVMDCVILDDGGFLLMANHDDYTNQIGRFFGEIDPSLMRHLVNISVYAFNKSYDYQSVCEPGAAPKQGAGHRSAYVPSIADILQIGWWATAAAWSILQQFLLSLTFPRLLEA
T1 sequence (P13806 961-1106 partner limits assumed, other chains not shown): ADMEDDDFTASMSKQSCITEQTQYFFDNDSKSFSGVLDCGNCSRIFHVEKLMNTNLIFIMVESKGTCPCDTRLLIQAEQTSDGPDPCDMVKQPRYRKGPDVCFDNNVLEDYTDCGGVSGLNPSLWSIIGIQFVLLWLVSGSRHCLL

In general, IC50 refers to the concentration at which inhibition is half-maximal. For the compound `COC(=O)C1=C(C)NC2=C(C1c1ccccc1Cl)S(=O)(=O)c1ccccc1[S+]([O-])C2` (stereo not drawn) [Compound 1, 1H-[1,5]Benzodithiepino[3,2-b]pyridine-3-carboxylic acid, 4-(2-chlorophenyl)-4,11-dihydro-2-methyl, methyl ester, 5,5,10-trioxide], the IC50 under setting [1] was 14 nM.
Consider `CC1=C(C(=O)OCCN(C)Cc2ccccc2)C(c2cccc(Cl)c2Cl)C2=C(CS(=O)(=O)c3ccccc3S2(=O)=O)N1` (stereo not drawn) [Compound 2, 1H-[1,5]Benzodithiepino[3,2-b]pyridine-3-carboxylic acid, 4-(2,3-dichlorophenyl)-4,11-dihydro-2-methyl, 2-[methyl(phenylmethyl)amino]ethyl ester, 5,5,10,10-tetraoxide], for which, under setting [1], the IC50 amounted to 20 nM.
As for `CC1=C(C(=O)OCCN(C)Cc2ccccc2)C(c2ccccc2[N+](=O)[O-])C2=C(CS(=O)(=O)c3ccccc3S2(=O)=O)N1` (stereo not drawn) [Compound 3, 1H-[1,5]Benzodithiepino[3,2-b]pyridine-3-carboxylic acid, 4,11-dihydro-2-methyl-4-(2-nitrophenyl), 2-[methyl(phenylmethyl)amino]ethyl ester, 5,5,10,10-tetraoxide], the IC50 under setting [1] amounted to 34 nM.
Turning to `CC1=C(C(=O)OCCN(C)Cc2ccccc2)C(c2cccc(Cl)c2)C2=C(CS(=O)(=O)c3ccccc3S2(=O)=O)N1` (stereo not drawn) [Compound 4, 1H-[1,5]Benzodithiepino[3,2-b]pyridine-3-carboxylic acid, 4-(3-chlorophenyl)-4,11-dihydro-2-methyl, 2-[methyl(phenylmethyl)amino]ethyl ester, 5,5,10,10-tetraoxide], under setting [1], the IC50 was 22 nM.
In the case of `COC(=O)C1=C(C)NC2=C(C1c1ccccc1Cl)S(=O)(=O)c1ccccc1S(=O)(=O)C2` (stereo not drawn) [Compound 5, 1H-[1,5]Benzodithiepino[3,2-b]pyridine-3-carboxylic acid, 4-(2-chlorophenyl)-4,11-dihydro-2-methyl, methyl ester, 5,5,10,10-tetraoxide], the half-inhibitory concentration (IC50) under setting [1] is 9 nM.
Consider `COC(=O)C1=C(C)NC2=C(C1c1cccc(Cl)c1)S(=O)(=O)c1ccccc1[S+]([O-])C2` (stereo not drawn) [Compound 6, 1H-[1,5]Benzodithiepino[3,2-b]pyridine-3-carboxylic acid, 4-(3-chlorophenyl)-4,11-dihydro-2-methyl, methyl ester, 5,5,10-trioxide], for which the IC50 under setting [1] came to 20 nM.
For the compound `COC(=O)C1=C(C)NC2=C(C1c1cccc(Cl)c1Cl)S(=O)(=O)c1ccccc1[S+]([O-])C2` (stereo not drawn) [Compound 7, 1H-[1,5]Benzodithiepino[3,2-b]pyridine-3-carboxylic acid, 4-(2,3-dichlorophenyl)-4,11-dihydro-2-methyl, methyl ester, 5,5,10-trioxide], the IC50 under setting [1] is 8 nM.
As for `COC(=O)C1=C(C)NC2=C(C1c1cccc(Cl)c1Cl)S(=O)(=O)c1ccccc1S(=O)(=O)C2` (stereo not drawn) [Compound 8, 1H-[1,5]Benzodithiepino[3,2-b]pyridine-3-carboxylic acid, 4-(2,3-dichlorophenyl)-4,11-dihydro-2-methyl, methyl ester, 5,5,10,10-tetraoxide], the concentration for half-maximal inhibition (IC50) under setting [1] was found to be 22 nM.
For `COC(=O)C1=C(C)NC2=C(C1c1cccc(Cl)c1)S(=O)(=O)c1ccccc1S(=O)(=O)C2` (stereo not drawn) [Compound 9, 1H-[1,5]Benzodithiepino[3,2-b]pyridine-3-carboxylic acid, 4-(3-chlorophenyl)-4,11-dihydro-2-methyl, methyl ester, 5,5,10,10-tetraoxide], the IC50 under setting [1] stood at 10 nM.
As to `COC(=O)C1=C(C)NC2=C(C1c1ccccc1[N+](=O)[O-])S(=O)(=O)c1ccccc1S(=O)(=O)C2` (stereo not drawn) [Compound 10], the IC50 under setting [1] was 36 nM.
Turning to `COC(=O)C1=C(C)NC2=C(C1c1c(F)c(F)c(F)c(F)c1F)S(=O)(=O)c1ccccc1S(=O)(=O)C2` (stereo not drawn) [Compound 11, 1H-[1,5]Benzodithiepino[3,2-b]pyridine-3-carboxylic acid, 4,11-dihydro-2-methyl-4-(pentafluorophenyl), methyl ester, 5,5,10,10-tetraoxide], the IC50 under setting [1] worked out at 12 nM.
`CC1=C(C(=O)OCCN(C)Cc2ccccc2)C(c2c(F)c(F)c(F)c(F)c2F)C2=C(CS(=O)(=O)c3ccccc3S2(=O)=O)N1` (stereo not drawn) [Compound 12, 1H-[1,5]Benzodithiepino[3,2-b]pyridine-3-carboxylic acid, 4,11-dihydro-2-methyl-4-(pentafluorophenyl), 2-[methyl(phenylmethyl)amino]ethyl ester, 5,5,10,10-tetraoxide]: the IC50 under setting [1] turned out to be 21 nM.
As for `COC(=O)C1=C(C)NC2=C(C1c1cccc(C(F)(F)F)c1F)S(=O)(=O)c1ccccc1S(=O)(=O)C2` (stereo not drawn) [Compound 13, 1H-[1,5]Benzodithiepino[3,2-b]pyridine-3-carboxylic acid, 4-[2-fluoro-3-(trifluoromethyl)phenyl]-4,11-dihydro-2-methyl, methyl ester, 5,5,10,10-tetraoxide], the IC50 under setting [1] worked out at 14 nM.
As for `CC1=C(C(=O)OCCN(C)Cc2ccccc2)C(c2cccc(C(F)(F)F)c2F)C2=C(CS(=O)(=O)c3ccccc3S2(=O)=O)N1` (stereo not drawn) [Compound 14, 1H-[1,5]Benzodithiepino[3,2-b]pyridine-3-carboxylic acid, 4-[2-fluoro-3-(trifluoromethyl)phenyl]-4,11-dihydro-2-methyl, 2-[methyl(phenylmethyl)-amino]ethyl ester, 5,5,10,10-tetraoxide], the IC50 under setting [1] was determined as 58 nM.
`COC(=O)C1=C(C)NC2=C(C1c1cccc([N+](=O)[O-])c1)S(=O)(=O)c1ccccc1S(=O)(=O)C2` (stereo not drawn) [Compound 15, 1H-[1,5]Benzodithiepino[3,2-b]pyridine-3-carboxylic acid, 4,11-dihydro-2-methyl-4-(3-nitrophenyl), methyl ester, 5,5,10,10-tetraoxide]: the IC50 under setting [1] was 20 nM.
On the same count and under the same terms, with `CC1=C(C(=O)OCCN(C)Cc2ccccc2)C(c2cccc([N+](=O)[O-])c2)C2=C(CS(=O)(=O)c3ccccc3S2(=O)=O)N1` (stereo not drawn) [Compound 16, 1H-[1,5]Benzodithiepino[3,2-b]pyridine-3-carboxylic acid, 4,11-dihydro-2-methyl-4-(3-nitrophenyl), 2-[methyl(phenylmethyl)amino]ethyl ester, 5,5,10,10-tetraoxide] the figure was 24 nM; with `CC1=C(C(=O)OCCN(C)Cc2ccccc2)C(c2c(F)cccc2Cl)C2=C(CS(=O)(=O)c3ccccc3S2(=O)=O)N1` (stereo not drawn) [Compound 17, 1H-[1,5]Benzodithiepino[3,2-b]pyridine-3-carboxylic acid, 4-(2-chloro-6-fluorophenyl)-4,11-dihydro-2-methyl, 2-[methyl(phenylmethyl)amino]ethyl ester, 5,5,10,10-tetraoxide], 62 nM; with `CC1=C(C(=O)OCCN(C)Cc2ccccc2)C(c2ccccc2Cl)C2=C(C[S+]([O-])c3ccccc3S2(=O)=O)N1` (stereo not drawn) [Compound 18, 1H-[1,5]Benzodithiepino[3,2-b]pyridine-3-carboxylic acid, 4-(2-chlorophenyl)-4,11-dihydro-2-methyl, 2-[methyl(phenylmethyl)amino]ethyl ester, 5,5,10-trioxide], 23 nM.
On the same count and under the same terms, the same measure for `CC1=C(C(=O)OCCN(C)Cc2ccccc2)C(c2ccccc2Cl)C2=C(CS(=O)(=O)c3ccccc3S2(=O)=O)N1` (stereo not drawn) [Compound 19, 1H-[1,5]Benzodithiepino[3,2-b]pyridine-3-carboxylic acid, 4-(2-chlorophenyl)-4,11-dihydro-2-methyl, 2-[methyl(phenylmethyl)amino]ethyl ester, 5,5,10,10-tetraoxide]: 18 nM.
Regarding `CC1=C(C(=O)OCCO)C(c2c(F)cccc2Cl)C2=C(C[S+]([O-])c3ccccc3S2(=O)=O)N1` (stereo not drawn) [Compound 20], the IC50 under setting [2] came to 306 nM.
With `CC1=C(C(=O)OCCO)C(c2c(F)cccc2Cl)C2=C(CS(=O)(=O)c3ccccc3S2(=O)=O)N1` (stereo not drawn) [Compound 21], the IC50 under setting [2] worked out at 6070 nM.
Regarding `CC(=O)OCCOC(=O)C1=C(C)NC2=C(C1c1c(F)cccc1Cl)S(=O)(=O)c1ccccc1S(=O)(=O)C2` (stereo not drawn) [Compound 22, 1H-[1,5]benzodithiepino[3,2-b]pyridine-3-carboxylic acid, 4-(2-chloro-6-fluorophenyl)-4,11-dihydro-2-methyl-, 2-(acetyloxy)ethyl ester, 5,5,10,10-tetraoxide], under setting [2], the IC50 came to 180 nM.
For the compound `CC1=C(C(=O)OCCOC(=O)c2ccccc2)C(c2c(F)cccc2Cl)C2=C(CS(=O)(=O)c3ccccc3S2(=O)=O)N1` (stereo not drawn) [Compound 23, 1H-[1,5]benzodithiepino[3,2-b]pyridine-3-carboxylic acid, 4-(2-chloro-6-fluorophenyl)-4,11-dihydro-2-methyl-, 2-(benzoyloxy)ethyl ester, 5,5,10,10-tetraoxide], under setting [2], the 50% inhibitory concentration (IC50) is 30 nM.
Take `CC1=C(C(=O)OCCOC(=O)C2CCCCC2)C(c2c(F)cccc2Cl)C2=C(CS(=O)(=O)c3ccccc3S2(=O)=O)N1` (stereo not drawn) [Compound 24, 1H-[1,5]benzodithiepino[3,2-b]pyridine-3-carboxylic acid, 4-(2-chloro-6-fluorophenyl)-4,11-dihydro-2-methyl-, 2-[(cyclohexylcarbonyl)oxy]ethyl ester, 5,5,10,10-tetraoxide]: under setting [2], the IC50 worked out at 43 nM.
